# Data: patent US11980631B2, “β-lactamase inhibitors” (priority 2017, dated 2024)
# Read-outs that look alike come from different tables or passages of the source.
# Assays:
# [1] = tested on: L1 β-lactamase production in S. maltophilia K279a; experiment: L1 β-lactamase induction by β-lactamase inhibitors (meropenem hydrolysis in cell extracts); type: cell-based; conditions: 50 μg.mL^−1 inducer
# Method: L1 activity was measured from the cell extracts in a 96-well plate reader by determining meropenem hydrolysis (100 μM) at λ=300 nm. Protein concentration was determined by using BioRad protein assay dye reagent. Specific activity was calculated by using the extinction coefficient of 9600 AU/M/cm and a pathlength correction for the microplate ([…]). Data presented are means +/−SEM, n=3.
# Cultures were grown overnight using nutrient broth and used to inoculate (1:100 dilution) 10 ml nutrient broth cultures in sealed 30 ml universal bottles. Cultures were incubated for 2 h with shaking at 37° C. before test inducers were added, or not, and culture was continued for 2 h. Cells were pelleted by centrifugation (4,000×g, 10 min) and pellets treated with 100 μL of BugBuster (Ambion), pipetting up and down a few times before rocking for 10 min at room temperature. […] Protein concentration was determined using the BioRad protein assay reagent concentrate according to the manufacturer's instructions. L1 β-lactamase activity was determined using an Omega Fluostar (BMG Biotech) using meropenem as substrate in half-area 96 well UV-translucent plates (Greiner UV-Star. Bio-one) with 200 μl of 100 μM meropenem solution in assay buffer (60 mM Na2HPO4.7H2O pH 7.0, 40 mM NaH2PO4.H2O, 10 mM KCI, 1 mM MgSO4.7H2O, 100 μM ZnCl2) plus 10 μL of cell extract. […]
# S. maltophilia = experiment: microbe, parasite or virus in culture; type: cell-based, Stenotrophomonas maltophilia; conditions: for MIC: Stenotrophomonas maltophilia, no inhibitor
# Method: S. maltophilia clinical isolates were K279a, a well characterised isolate from Bristol, UK, or were obtained from the SENTRY antimicrobial resistance survey, as previously reported. […] All growth media were from Oxoid. Chemicals were from Sigma, unless otherwise stated.
# Susceptibility to β-lactams in bacterial isolates was determined using the CLSI microtitre minimum inhibitory concentration (MIC) methodology with Muller-Hinton Broth using 96 well plates (Corning, Costar). The MIC was determined as the lowest concentration of β-lactam required to entirely suppress growth. Inhibitor concentrations were kept constant at 2 mg/L or 10 mg/L in all assays. Interpretation of susceptibility/resistance was by reference to CLSI clinical breakpoints for S. maltophilia (ceftazidime) and for Pseudomonas aeruginosa (for aztreonam and meropenem, since no S. maltophilia breakpoints are available).
# L2 = L2 (Stenotrophomonas maltophilia (Pseudomonas maltophilia) (Xanthomonas maltophilia), UniProt P96465); experiment: Inhibition of purified L2, fluorogenic substrate FC5 as reporter; conditions: IC50, purified L2, FC5 substrate
# L2, sequence (P96465 36-303 limits assumed): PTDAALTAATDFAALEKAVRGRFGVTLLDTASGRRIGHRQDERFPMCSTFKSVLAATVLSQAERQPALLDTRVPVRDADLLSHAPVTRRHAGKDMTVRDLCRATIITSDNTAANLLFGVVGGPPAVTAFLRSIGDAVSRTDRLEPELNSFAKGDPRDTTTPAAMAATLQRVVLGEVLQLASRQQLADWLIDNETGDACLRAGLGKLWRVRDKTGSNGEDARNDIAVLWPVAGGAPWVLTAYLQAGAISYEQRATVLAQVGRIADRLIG
# Method: Steady state kinetic data were analysed by curve fitting to the Michaeilis-Menten equation using Prism software.
# BlaC = BlaC (Mycobacterium tuberculosis (strain ATCC 25618 / H37Rv), UniProt P9WKD3); experiment: BlaC inhibition assay (FC5 hydrolysis, fluorescence); type: biochemical
# BlaC, sequence (P9WKD3 35-307 limits assumed): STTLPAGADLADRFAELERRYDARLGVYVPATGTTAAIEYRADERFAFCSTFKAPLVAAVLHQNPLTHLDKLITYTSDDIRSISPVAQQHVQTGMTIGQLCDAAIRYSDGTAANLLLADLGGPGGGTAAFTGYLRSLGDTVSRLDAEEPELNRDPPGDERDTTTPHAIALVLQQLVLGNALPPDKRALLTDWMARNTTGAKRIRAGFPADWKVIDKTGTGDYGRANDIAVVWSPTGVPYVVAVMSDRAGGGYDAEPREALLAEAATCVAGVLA
# Method: Recombinant BlaC, with an N-terminal His-tag, was produced in E. coli BL21(DE3) cells using auto-induction medium supplemented with 50 μg mL^−1 ampicillin. Cells were grown for four hours at 37° C. before cooling to 18° C. and continuing growth overnight. Cells were harvested by centrifugation (10 min, 10000 g).
# FC5 was stored as a 2.5 mM solution in assay buffer supplemented with 10% (v/v) DMSO. Fluorescence measurements were made using a PHERAstar multi-mode plate reader (BMG Labtech). All assays were carried out at 25° C. Fluorescence assays were carried out using black 96 well format half area clear® plates (Greiner Bio-One) with a final assay volume of 100 μL. FC5 hydrolysis was followed by fluorescence (λex=380 nm, λem=460 nm) corresponding to the release of the umbelliferone fluorophore. The optimum concentration of enzyme for steady-state measurements was determined by examining the rate of substrate hydrolysis at varied concentrations of enzyme, with the concentration at which the initial rate remained constant for 5-10 min being selected as an appropriate enzyme concentration. Initial rates of substrate hydrolysis were determined at varying substrate concentrations. Steady-state kinetic parameters were determined by fitting of initial rates to the Michaelis-Menten equation using GraphPad Prism 5 software.
# Inhibition assays were performed by monitoring the initial rate of FC5 hydrolysis via fluorescence at a range of inhibitor concentrations. Inhibitors were stored either as solids or as 100 mM stock solutions in DMSO, these were diluted to appropriate concentrations in the assay buffer. Typically inhibition assays were carried out using black 384 well format pclear® plates (Griener Bio-One) with a final assay volume of 25 μL. Enzyme concentrations were chosen to give a linear rate of FC5 hydrolysis over the first 5 min of the assay time with an FC5 concentration of 5 μM. Components were added in the following order and volumes:
# The enzyme was incubated with the inhibitor for 10 min prior to initiation of the reaction by the addition of the substrate. The residual activities were calculated using the following formula:
# [formula] IC50 values were calculated by fitting of residual residual activity curves using GraphPad Prism 5 software.
smiles,measurement,setting,value
NC(=O)[C@@H]1CC[C@@H]2CN1C(=O)N2OS(=O)(=O)O [Avibactam],induction of L1 production (in words),[1],neither avibactam nor 2 induces L1 to any measurable extent
same,MIC of aztreonam in the presence of the β-lactamase inhibitor,"S. maltophilia; CI-20, inhibitor at 2 mg/L",2 µg/mL
same,MIC of ceftazidime in the presence of the β-lactamase inhibitor,"S. maltophilia; CI-20, inhibitor at 2 mg/L",4 µg/mL
same,MIC of meropenem in the presence of the β-lactamase inhibitor,"S. maltophilia; CI-20, inhibitor at 2 mg/L",64 µg/mL
same,MIC of aztreonam in the presence of the β-lactamase inhibitor,"S. maltophilia; CI-29, inhibitor at 2 mg/L",1 µg/mL
same,MIC of ceftazidime in the presence of the β-lactamase inhibitor,"S. maltophilia; CI-29, inhibitor at 2 mg/L",1 µg/mL
same,MIC of meropenem in the presence of the β-lactamase inhibitor,"S. maltophilia; CI-29, inhibitor at 2 mg/L",32 µg/mL
same,MIC of aztreonam in the presence of the β-lactamase inhibitor,"S. maltophilia; CI-31, inhibitor at 2 mg/L",≤ 4 µg/mL
same,MIC of ceftazidime in the presence of the β-lactamase inhibitor,"S. maltophilia; CI-31, inhibitor at 2 mg/L",128 µg/mL
same,MIC of meropenem in the presence of the β-lactamase inhibitor,"S. maltophilia; CI-31, inhibitor at 2 mg/L",256 µg/mL
same,MIC of aztreonam in the presence of the β-lactamase inhibitor,"S. maltophilia; CI-31, inhibitor at 2 mg/L, listed as AVI",4 µg/mL
same,MIC of aztreonam in the presence of the β-lactamase inhibitor,"S. maltophilia; K279a, inhibitor at 2 mg/L",1 µg/mL
same,MIC of ceftazidime in the presence of the β-lactamase inhibitor,"S. maltophilia; K279a, inhibitor at 2 mg/L",1 µg/mL
same,MIC of meropenem in the presence of the β-lactamase inhibitor,"S. maltophilia; K279a, inhibitor at 2 mg/L",16 µg/mL
same,MIC of aztreonam in the presence of the β-lactamase inhibitor,"S. maltophilia; K AMI 32, inhibitor at 2 mg/L",0.5 µg/mL
same,MIC of ceftazidime in the presence of the β-lactamase inhibitor,"S. maltophilia; K AMI 32, inhibitor at 2 mg/L",0.5 µg/mL
same,MIC of meropenem in the presence of the β-lactamase inhibitor,"S. maltophilia; K AMI 32, inhibitor at 2 mg/L",16 µg/mL
same,MIC of aztreonam in the presence of the β-lactamase inhibitor,"S. maltophilia; K CAZ 10, inhibitor at 2 mg/L",1 µg/mL
same,MIC of ceftazidime in the presence of the β-lactamase inhibitor,"S. maltophilia; K CAZ 10, inhibitor at 2 mg/L",8 µg/mL
same,MIC of meropenem in the presence of the β-lactamase inhibitor,"S. maltophilia; K CAZ 10, inhibitor at 2 mg/L",64 µg/mL
same,MIC of aztreonam in the presence of the β-lactamase inhibitor,"S. maltophilia; K MOX 8, inhibitor at 2 mg/L",0.5 µg/mL
same,MIC of ceftazidime in the presence of the β-lactamase inhibitor,"S. maltophilia; K MOX 8, inhibitor at 2 mg/L",0.5 µg/mL
same,MIC of meropenem in the presence of the β-lactamase inhibitor,"S. maltophilia; K MOX 8, inhibitor at 2 mg/L",16 µg/mL
same,ability to potentiate β-lactams / reverse resistance (in words),"S. maltophilia; inhibitor at 2 mg/L, β-lactam and strain named in the value",reduce ceftazidime MICs against K279a
same,IC50,L2,0.0144 µM
C[C@H]1[C@H](NC(=O)/C(=N\OC(C)(C)C(=O)O)c2csc(N)n2)C(=O)N1S(=O)(=O)O [Aztreonam],MIC,"S. maltophilia; read-out: MIC of the β-lactam alone (−), CI-20",128 µg/mL
same,MIC,"S. maltophilia; read-out: MIC of the β-lactam alone (−), CI-29",128 µg/mL
same,MIC,"S. maltophilia; read-out: MIC of the β-lactam alone (−), CI-31",256 µg/mL
same,MIC,"S. maltophilia; read-out: MIC of the β-lactam alone (−), K279a",128 µg/mL
same,MIC,"S. maltophilia; read-out: MIC of the β-lactam alone (−), K AMI 32",128 µg/mL
same,MIC,"S. maltophilia; read-out: MIC of the β-lactam alone (−), K CAZ 10",256 µg/mL
same,MIC,"S. maltophilia; read-out: MIC of the β-lactam alone (−), K MOX 8",128 µg/mL
C[C@@H](O)[C@H]1C(=O)N2C(C(=O)O)=C(SCCN=CN)C[C@H]12 [Imipenem],pIC50,BlaC; pre-incubation time 0 min,5.59 ± 0.01
same,pIC50,BlaC; pre-incubation time 10 min,6.09 ± 0.02
same,pIC50,BlaC; pre-incubation time 60 min,6.45 ± 0.05
C[C@]1(Cn2ccnn2)[C@H](C(=O)O)N2C(=O)C[C@H]2S1(=O)=O [Tazobactam],IC50,BlaC; pre-incubation time 0 min,6.46 µM
same,IC50,BlaC; pre-incubation time 10 min,2.75 µM
same,IC50,BlaC; pre-incubation time 60 min,3.55 µM
